Measured values taken from patent US20030148483A1, “Method of removing residual enzymes in enzyme microencapsulation” (priority 2002, published 2003).

Tests used:
[1] = system: microencapsulated lactase; assay: Effect of ozone treatment on the activity of microencapsulated lactase (heating method, ONPG); format: biochemical; details: initial activity 100%
Description: With an aim to investigate effect of ozone treatment on microencapsulated lactase, microcapsules containing lactase were collected from the ozone-treated dispersion fluid prepared in Examples 2 to 4 by centrifugation, and the activity of microencapsulated lactase was measured using a heating method among yield analysis methods disclosed in Korean Pat. No. 88465.
0.5 ml of the resulting dispersion fluid containing microcapsules was mixed with 2 ml of 0.05 M ONPG pre-heated at 50° C. for 10 min. After 5 min, the reaction was terminated with adding 0.5 ml of 0.5M Na2CO3 thereto, and absorbance at 420 nm was measured using a spectrophotometer (Beckman Du 650 spectrophotometer, Beckman Instrument, Inc., Fullerton, Calif., USA). The results are given in FIG. 3, where the initial activity of lactase is 100%.
Yield of microcapsule=1−Activity of uncapsulated lactase/ Initial activity of lactase×100

[2] = system: uncapsulated lactase; assay: Assay for the activity of uncapsulated lactase after ozone treatment (ONPG, absorbance at 420 nm); format: biochemical; details: initial activity 100%
Description: After centrifuging the dispersion fluid of microcapsules prepared by ozone treatment in Examples 2 to 4 at 24,900×g for 10 min, the resulting supernatants were assayed for activity of uncapsulated lactase.
A portion of each of the supernatants was primarily filtered using Whatman No. 540 (Whatman International Ltd., Maidstone, England), and then further filtered using an 1 μm membrane filter (Whatman International Ltd., Maidstone, England).
Thereafter, 0.5 ml of the filtered supernatant was mixed with 2 ml of a solution of 0.05 M ONPG (Ortho-nitrophenol-β-D-galactopyranoside, Sigma Chemical Co., St. Louis, Mo. USA) preheated at 37° C. for 15 min, followed by incubation for 20 min at 37° C. After 20 min, the reaction was terminated with adding 0.5 ml of a 0.5 M Na2CO3 solution (Shinoyo Pure Chemical Co., Ltd., Osaka, Japan) thereto.
Absorbance at 420 nm was measured using a spectrophotometer (Beckman Du 650 spectrophotometer; Beckman Instrument, Inc, Fullerton, Calif., USA), and the results are given in FIG. 2.

[3] = system: Staphylococcus aureus; assay: Effect of ozone treatment on growth of microorganisms (colony count); format: cell-based; details: ozone 10 ppm, 2° C.; for viability: 0 min = 100
Description: (§1) Microorganisms were treated with ozone of 10 ppm, at which concentration much of untrapped lactase loses its activity, while microencapsulated lactase retains effective activity, and effect of ozone on the growth of microorganisms was investigated.
(§2) Pathogenic microorganisms found especially in food, including Escherichia coli, Bacillus subtilis, Staphylococcus aureus, Salmonella typhimurium, Pseudomonas aeruginosa, and Enterobacter aerogenes, were obtained from Korean Culture Center of Microorganisms (Seoul, Korea) and stored in broth containing 50% glycerol at −70° C. until use. The five strains, except S. aureus, were cultured in nutrient broth (NB), and S. aureus was cultured in tryptic soy broth (TSB) for 24 hours at 37° C.
(§3) Trace amounts of the cultured microorganisms were mixed with the dispersion fluid of microcapsules, followed by treatment of ozone of 10 ppm at 2° C. under a flow rate of 10 L/min using an ozone generator.
(§4) After being serially diluted, the ozone-treated microorganisms were plated onto nutrient agar broth.

[4] = system: Enterobacter aerogenes; assay: as above; format: cell-based; details: ozone 10 ppm, 2° C.; for viability: 0 min = 100
Description: as §1, §2, §3, §4

[5] = system: Bacillus subtilis; assay: as above; format: cell-based; details: ozone 10 ppm, 2° C.; for viability: 0 min = 100
Description: as §1, §2, §3, §4

[6] = system: Escherichia coli; assay: as above; format: cell-based; details: ozone 10 ppm, 2° C.; for viability: 0 min = 100
Description: as §1, §2, §3, §4

[7] = system: Pseudomonas aeruginosa; assay: as above; format: cell-based; details: ozone 10 ppm, 2° C.; for viability: 0 min = 100
Description: as §1, §2, §3, §4

[8] = system: Salmonella typhimurium; assay: as above; format: cell-based; details: ozone 10 ppm, 2° C.; for viability: 0 min = 100
Description: as §1, §2, §3, §4

O=[O+][O-] [ozone]
activity of lactase entrapped into microcapsules ([1]; 1 ppm of ozone, 1 min): about 97%
activity of lactase entrapped into microcapsules ([1]; 1 ppm of ozone, 5 min): 91%
activity of lactase entrapped into microcapsules ([1]; 1 ppm of ozone, 10 min): 74%
activity of lactase entrapped into microcapsules ([1]; 5 ppm of ozone, 1 min): 96%
activity of lactase entrapped into microcapsules ([1]; 5 ppm of ozone, 5 min): 82%
activity of lactase entrapped into microcapsules ([1]; 5 ppm of ozone, 10 min): 67%
activity of lactase entrapped into microcapsules ([1]; 10 ppm of ozone, 1 min): 93%
activity of lactase entrapped into microcapsules ([1]; 10 ppm of ozone, 5 min): 79%
activity of lactase entrapped into microcapsules ([1]; 10 ppm of ozone, 10 min): 65%
activity of lactase (uncapsulated) ([2]; 1 ppm of ozone, 1 min): about 94.3%
activity of lactase (uncapsulated) ([2]; 1 ppm of ozone, 5 min): 56.4%
activity of lactase (uncapsulated) ([2]; 1 ppm of ozone, 10 min): 26.5%
activity of lactase (uncapsulated) ([2]; 5 ppm of ozone, 1 min): 82%
activity of lactase (uncapsulated) ([2]; 5 ppm of ozone, 5 min): 42.8%
activity of lactase (uncapsulated) ([2]; 5 ppm of ozone, 10 min): 20%
activity of lactase (uncapsulated) ([2]; 10 ppm of ozone, 1 min): 57.8%
activity of lactase (uncapsulated) ([2]; 10 ppm of ozone, 5 min): 32.8%
activity of lactase (uncapsulated) ([2]; 10 ppm of ozone, 10 min): 9.7%
colonies counted ([3]; treatment time 0.5 min): 1.0 × 10^8 CFU/ml
viability ([3]; treatment time 0.5 min): (15) %
colonies counted ([3]; treatment time 1 min): 6.4 × 10^7 CFU/ml
viability ([3]; treatment time 1 min): (9.4) %
colonies counted ([3]; treatment time 5 min): 1.2 × 10^7 CFU/ml
viability ([3]; treatment time 5 min): (1.8) %
colonies counted ([3]; treatment time 10 min): 1.1 × 10^5 CFU/ml
viability ([3]; treatment time 10 min): (0.01) %
colonies counted ([4]; treatment time 0.5 min): 5.4 × 10^6 CFU/ml
viability ([4]; treatment time 0.5 min): 38%
colonies counted ([4]; treatment time 1 min): 1.0 × 10^6 CFU/ml
viability ([4]; treatment time 1 min): (7.1) %
colonies counted ([4]; treatment time 5 min): 2.4 × 10^5 CFU/ml
viability ([4]; treatment time 5 min): (1.7) %
colonies counted ([4]; treatment time 10 min): 0 CFU/ml
viability ([4]; treatment time 10 min): (0) %
colonies counted ([5]; treatment time 0.5 min): 9.6 × 10^7 CFU/ml
viability ([5]; treatment time 0.5 min): 60%
colonies counted ([5]; treatment time 1 min): 2.2 × 10^7 CFU/ml
viability ([5]; treatment time 1 min): (14) %
colonies counted ([5]; treatment time 5 min): 6.0 × 10^6 CFU/ml
viability ([5]; treatment time 5 min): (3.7) %
colonies counted ([5]; treatment time 10 min): 0 CFU/ml
viability ([5]; treatment time 10 min): (0) %
colonies counted ([6]; treatment time 0.5 min): 8.9 × 10^7 CFU/ml
viability ([6]; treatment time 0.5 min): 3.7%
colonies counted ([6]; treatment time 1 min): 3.1 × 10^7 CFU/ml
viability ([6]; treatment time 1 min): (1.3) %
colonies counted ([6]; treatment time 5 min): 9.0 × 10^6 CFU/ml
viability ([6]; treatment time 5 min): (0.3) %
colonies counted ([6]; treatment time 10 min): 0 CFU/ml
viability ([6]; treatment time 10 min): (0) %
colonies counted ([7]; treatment time 0.5 min): 1.2 × 10^8 CFU/ml
viability ([7]; treatment time 0.5 min): (35) %
colonies counted ([7]; treatment time 1 min): 7.5 × 10^7 CFU/ml
viability ([7]; treatment time 1 min): 22%
colonies counted ([7]; treatment time 5 min): 3.6 × 10^6 CFU/ml
viability ([7]; treatment time 5 min): 1%
colonies counted ([7]; treatment time 10 min): 0 CFU/ml
viability ([7]; treatment time 10 min): (0) %
colonies counted ([8]; treatment time 0.5 min): 8.4 × 10^8 CFU/ml
viability ([8]; treatment time 0.5 min): 34%
colonies counted ([8]; treatment time 1 min): 1.1 × 10^7 CFU/ml
viability ([8]; treatment time 1 min): 0.4%
colonies counted ([8]; treatment time 5 min): 1.5 × 10^6 CFU/ml
viability ([8]; treatment time 5 min): (0.06) %
colonies counted ([8]; treatment time 10 min): 0 CFU/ml
viability ([8]; treatment time 10 min): (0) %
